Experimental data reported in BindingDB's records for doi:10.1016/s0960-894x(00)00385-1 (Merck Research Laboratories, 2001).

Test: Inhibition of aggregation of human gel-filtered platelets measured by light transmittance method at 37 degrees C.

SMILES | IC50 [nM]
O=C(NC[C@H](NS(=O)(=O)c1ccccc1)C(=O)O)c1ccc(OCCC2CCNCC2)cc1 [2-Benzenesulfonylamino-3-[4-(2-piperidin-4-yl-ethoxy)-benzoylamino]-propionic acid] | 13
C#CC(CCCN1CCC[C@@H](CCC2CCNCC2)C1=O)CC(=O)O (stereo partly drawn) [3-Ethynyl-6-[(R)-2-oxo-3-(2-piperidin-4-yl-ethyl)-piperidin-1-yl]-hexanoic acid] | 51
O=C(O)CCNC(=O)CN1CCc2ccc(N3CCNCC3)cc2C1=O [3-[2-(1-Oxo-7-piperazin-1-yl-3,4-dihydro-1H-isoquinolin-2-yl)-acetylamino]-propionic acid] | 140
C[C@H](CC(=O)O)NC(=O)CN1CCC[C@@H](CCC2CCNCC2)C1=O [3-{2-[2-Oxo-3-(2-piperidin-4-yl-ethyl)-piperidin-1-yl]-acetylamino}-butyric acid (L-734217)] | 32
C#CC(CC(=O)O)NC(=O)CN(C(=O)c1cccc(C2CCNCC2)c1)C1CC1 (stereo not drawn) [3-{2-[Cyclopropyl-(3-piperidin-4-yl-benzoyl)-amino]-acetylamino}-pent-4-ynoic acid] | 15
CC(CC(=O)O)NC(=O)c1ccc2c(c1)C(=O)N(CCC1CCNCC1)C2 (stereo not drawn) [3-{[3-Oxo-2-(2-piperidin-4-yl-ethyl)-2,3-dihydro-1H-isoindole-5-carbonyl]-amino}-butyric acid] | 65
C[C@@H](/C=C/CN1CCC[C@@H](CCC2CCNCC2)C1=O)CC(=O)O [(E)-(R)-3-Methyl-6-[(R)-2-oxo-3-(2-piperidin-4-yl-ethyl)-piperidin-1-yl]-hex-4-enoic acid] | 57
O=C(CN1CCc2ccc(N3CCNCC3)cc2C1=O)NC[C@H](NS(=O)(=O)c1ccccc1)C(=O)O [(S)-2-Benzenesulfonylamino-3-[2-(1-oxo-7-piperazin-1-yl-3,4-dihydro-1H-isoquinolin-2-yl)-acetylamino]-propionic acid] | 35
O=C(CN1CCC[C@@H](CCC2CCNCC2)C1=O)NC[C@H](NS(=O)(=O)c1ccccc1)C(=O)O [(S)-2-Benzenesulfonylamino-3-{2-[(R)-2-oxo-3-(2-piperidin-4-yl-ethyl)-piperidin-1-yl]-acetylamino}-propionic acid] | 11
O=C(NC[C@H](NS(=O)(=O)c1ccccc1)C(=O)O)c1ccc2c(c1)C(=O)N(CCC1CCNCC1)C2 [(S)-2-Benzenesulfonylamino-3-{[3-oxo-2-(2-piperidin-4-yl-ethyl)-2,3-dihydro-1H-isoindole-5-carbonyl]-amino}-propionic acid] | 8
O=C(NC[C@H](NS(=O)(=O)c1ccccc1)C(=O)O)c1cc2cc(OCCC3CCNCC3)ccc2[nH]1 [(S)-2-Benzenesulfonylamino-3-{[5-(2-piperidin-4-yl-ethoxy)-1H-indole-2-carbonyl]-amino}-propionic acid] | 10
C#C[C@H](CC(=O)O)NC(=O)C[C@H]1CCCN(CCc2ccnc(N)c2)C1=O [(S)-3-(2-{(R)-1-[2-(2-Amino-pyridin-4-yl)-ethyl]-2-oxo-piperidin-3-yl}-acetylamino)-pent-4-ynoic acid] | 19
C#C[C@H](CC(=O)O)NC(=O)CN1CCC[C@@H](CCc2ccnc(N)c2)C1=O [(S)-3-(2-{(R)-3-[2-(2-Amino-pyridin-4-yl)-ethyl]-2-oxo-piperidin-1-yl}-acetylamino)-pent-4-ynoic acid] | 28
C#C[C@H](CC(=O)O)NC(=O)c1ccc2c(c1)C(=O)N(CCc1ccnc(N)c1)C2 [(S)-3-({2-[2-(2-Amino-pyridin-4-yl)-ethyl]-3-oxo-2,3-dihydro-1H-isoindole-5-carbonyl}-amino)-pent-4-ynoic acid] | 27
O=C(O)C[C@H](NC(=O)CN1CCc2ccc(N3CCNCC3)cc2C1=O)c1cccnc1 [(S)-3-[2-(1-Oxo-7-piperazin-1-yl-3,4-dihydro-1H-isoquinolin-2-yl)-acetylamino]-3-pyridin-3-yl-propionic acid] | 13
O=C(O)C[C@H](NC(=O)C[C@H]1CCCN(CCC2CCNCC2)C1=O)c1cccnc1 [(S)-3-{2-[(R)-2-Oxo-1-(2-piperidin-4-yl-ethyl)-piperidin-3-yl]-acetylamino}-3-pyridin-3-yl-propionic acid] | 9
C#C[C@H](CC(=O)O)NC(=O)C[C@H]1CCCN(CCC2CCNCC2)C1=O [(S)-3-{2-[(R)-2-Oxo-1-(2-piperidin-4-yl-ethyl)-piperidin-3-yl]-acetylamino}-pent-4-ynoic acid] | 15
O=C(O)C[C@H](NC(=O)CN1CCC[C@@H](CCC2CCNCC2)C1=O)c1cccnc1 [(S)-3-{2-[(R)-2-Oxo-3-(2-piperidin-4-yl-ethyl)-piperidin-1-yl]-acetylamino}-3-pyridin-3-yl-propionic acid] | 10
C#C[C@H](CC(=O)O)NC(=O)CN1CCC[C@@H](CCC2CCNCC2)C1=O [(S)-3-{2-[(R)-2-Oxo-3-(2-piperidin-4-yl-ethyl)-piperidin-1-yl]-acetylamino}-pent-4-ynoic acid] | 13
Cc1ccc(S(=O)(=O)N[C@@H](CNC(=O)c2cc3n(n2)CCCN(CCC2CCNCC2)C3=O)C(=O)O)cc1 [(S)-3-{[4-Oxo-5-(2-piperidin-4-yl-ethyl)-5,6,7,8-tetrahydro-4H-1,5,8a-triaza-azulene-2-carbonyl]-amino}-2-(toluene-4-sulfonylamino)-propionic acid] | 8
O=C(O)C[C@@H](CO)NC(=O)CN1CCc2ccc(N3CCNCC3)cc2C1=O [(S)-4-Hydroxy-3-[2-(1-oxo-7-piperazin-1-yl-3,4-dihydro-1H-isoquinolin-2-yl)-acetylamino]-butyric acid] | 81
O=C(O)C[C@@H](CO)NC(=O)c1ccc2c(c1)C(=O)N(CCC1CCNCC1)C2 [(S)-4-Hydroxy-3-{[3-oxo-2-(2-piperidin-4-yl-ethyl)-2,3-dihydro-1H-isoindole-5-carbonyl]-amino}-butyric acid] | 8
C#C[C@H](CC(=O)O)NC(=O)CN1CCc2ccc(N3CCNCC3)cc2C1=O [L-767679] | 15
